# Columns and labels:
# [1] = cited from earlier work
# E. coli K12 [2] = test: Attached cells challenge test, Romaine; type: cell-based
# E. coli K12 [3] = test: Attached cells challenge test, Spinach; type: cell-based; settings: LA 0.0%
# [4] = tested on: Lactobacillus plantarum 14917; test: Suspended Cells Challenge Test at 20 s residence time with no surfactant; type: cell-based; settings: Lactic Acid 0 ppm
# Method: The experimental treatment groups were tap water, chlorinated water, a FE sanitizer wash water (FE, FE sanitizer, a solution of peroxyacetic acid and lactic acid, as further specified in a given experiment).
# The experimental protocol was as follows: • 1. Transfer 1.00 mL of a ˜10^8cfu/g Lactobacillus plantarum (ATCC 14917) stock culture into a test tube containing 9.00 mL of treatment test solution • 2. Vortex the mixture for 15 s • 3. Stop the reaction by transferring 1 mL of the treated samples to 9 mL of Butterfield Phosphate Buffer • 4. Enumerate viable residual cells through serial dilutions and spread plating with 1-mL transfers • 5. […] Repeat Steps 1 to 5 two more times • 7. Repeat Steps 1 to 6 with flume water • 8. Repeat Steps 1 to 6 with chlorinated water • 9. Repeat Steps 1 to 8 with various levels of FE • 10. Repeat Steps 1 to 8 with various levels of lactic acid • 11. Repeat Steps 1 to 8 with various levels of peroxyacetic acid • 12. Repeat Steps 1 to 11 with Listeria innocua (ATCC33090)
# Estimation of Log Reductions • 1. Log […] is a measure of the percent of microorganisms that are inactivated during the disinfection process and is defined as Log Inactivation=Log10 (No/NT) where No is the initial influent concentration of viable microorganisms; NT is the concentration of surviving microorganisms. As M cfu/g=microbial population of stock culture; W cfu/g=microbial population in solution of “Water Treatment” and X cfu/g=microbial population in solution of “X Treatment,” the Log reduction caused by “Treatment X”=Log (w/x)
# [5] = Depletion of sanitizer wash water by diced Romaine Lettuce, commercial scale test; type: physicochemical; settings: 38 to 40 F.
# Method: (§1) These experiments evaluated the consumption or depletion of peroxyacetic acid when used to wash produce.
# (§2) Treatments: chlorinated water, peroxyacetic acid wash water, and FE sanitizer wash water
# (§3) Temperature: 38 to 40° F.
# (§4) Produce: 1.5″×2″ diced Romaine lettuce
# (§5) A. Determination of the amount of Romaine Lettuce that could deplete 600 gallons of peroxyacetic acid wash water. • 1. Perform full sanitization on the Pilot Line System. • 2. Fill the 2nd flume tank, 2″ reservoir, and 2″ filtering tank with tap water. • 3. Recycle the water through the system until the water in the system is being cooled down to 40° F. • 4. Calibrate the Prominent System and use the Prominent System to monitor the concentration of PAA in the wash water. • 5. Add the PAA to the 2nd filtering tank until the target processing limit is reached. • 6. Dice the Romaine Lettuce via the translicer. • 7. Collect the 2″33 2″ diced Romaine in totes. • 8. Record the weight of each tote prior to transferring it to the 2nd flume. • 9. Collect three untreated bags of Romaine Lettuce from each bin (1 top, 1 middle, and 1 bottom). • 10. Collect three treated bags of Romaine Lettuce at the end of F2 (1 beginning, 1 middle, and 1 end of the bin). • 11. Place white totes at the bottom of the locations with water spill. Return the spilt water back into the flume tank as needed. • 12. Place white totes at the bottom outlets of the centrifuge to collect liquid that would be spin off from the leaves. Return the collected water back into the flume tank as needed. • 13. Repeat Steps ‘e’ to ‘k’ for the rest of the bins till the FE concentrations fall below the lowest processing limits. • 14. Enumerate the microbial population (APC and Yeast and mold) on the collected samples.
# B. Determination of the Amount of Romaine Lettuce that Could Deplete 600 gallons of FE Wash Water • 1. Perform full sanitization on the Pilot Line System. • 2. Fill the flume tank, 2″ flume tank, 1st reservoir, 2nd reservoir, 1st filtering tank, and 2nd filtering tank with tap water. • 3. Recycle the water through the system until the water in the system is being cooled down to 40° F. • 4. Switch on the by-passes for the 1st and 2″ flume tank systems so that water would not be going through the filtering systems but only recycling from the flume tank to its associate reservoir continuously. • 5. Add the chemical ingredients to both tank until the target processing limit is reached. • 6. Verify the concentration of FE by the probe of the Prominent Monitoring System at the 1st flume tank (F1), 1^St Reservoir (R1), 2nd Flume tank (F2), and the 2nd Reservoir (R2). • 7. Collect water samples from F1 and F2. • 8. Assemble the Romaine Lettuce Bins next to the dumpster. • 9. Transfer whole Romaine Lettuce leaves from the bin to the conveyor. • 10. Ensure that the lid above the F1 is closed. Turn the “ON/OFF” switch of the translicer to “ON”. • 11. Turn the conveyor for transferring leaves into the translicer to “ON”. • 12. Ensure that the chopped Romaine are delivered evenly into the flume tank without aggregation and clumping. • 13. Collect three untreated bags of Romaine Lettuce from each bin (1 top, 1 middle, and 1 bottom). • 14. Collect three treated bags of Romaine Lettuce at the end of F2 (1 beginning, 1 middle, and 1 end of the bin). • 15. Verify the pH, temperature, and the concentration of FE at the 1st flume tank (F1), 1st Reservoir (R1), 2nd Flume tank (F2), and the 2nd Reservoir (R2) before and after processing a bin. • 16. Place white totes at the bottom of the locations with water spill. Return the spilt water back into the flume tank as needed. • 17. Place white totes at the bottom outlets of the centrifuge to collect liquid that would be spin off from the leaves. Return the collected water back into the flume tank as needed. • 18. Repeat Steps ‘e’ to ‘o’ for the rest of the bins till the FE concentrations fall below the lowest processing limits. • 19. […]
# [6] = tested on: indigenous microorganisms (Aerobic Plate Counts); test: Reduction of indigenous microorganisms on Romaine, commercial scale test; type: cell-based; settings: 73-84 ppm peroxyacetic acid, no lactic acid
# Method: as §1, §2, §3, §4
# as §5, with “Place white totes at the bottom outlets of the centrifuge to collect liquid that would be spin off from the leaves. Return the collected water back into the flume tank as needed. • 13. Repeat Steps ‘e’ to ‘k’ for the rest of the bins till the FE concentrations fall below the lowest processing limits. • 14. Enumerate the microbial population (APC and Yeast and mold) on the collected samples.” left out
# [7] = 40° C.; cited from earlier work
# [8] = 600 gallons, Diced Romaine Lettuce
# [9] = Cumulative Wt. of Diced Romaine added 0.0 lb, 600 gallons
# [10] = Cumulative Wt. of Diced Romaine added 55.2 lb, 600 gallons
# [11] = Cumulative Wt. of Diced Romaine added 114.9 lb, 600 gallons
# [12] = Cumulative Wt. of Diced Romaine added 157.2 lb, 600 gallons
# [13] = Cumulative Wt. of Diced Romaine added 207.7 lb, 600 gallons
# [14] = Cumulative Wt. of Diced Romaine added 272.9 lb, 600 gallons
# [15] = Cumulative Wt. of Diced Romaine added 325.8 lb, 600 gallons
# [16] = Cumulative Wt. of Diced Romaine added 371.3 lb, 600 gallons
# [17] = Cumulative Wt. of Diced Romaine added 424.7 lb, 600 gallons
# [18] = Cumulative Wt. of Diced Romaine added 502.6 lb, 600 gallons
# [19] = Cumulative Wt. of Diced Romaine added 565.0 lb, 600 gallons
# [20] = Cumulative Wt. of Diced Romaine added 629.0 lb, 600 gallons
# [21] = Cumulative Wt. of Diced Romaine added 697.1 lb, 600 gallons
# [22] = Cumulative Wt. of Diced Romaine added 762.7 lb, 600 gallons
# [23] = Cumulative Wt. of Diced Romaine added 826.6 lb, 600 gallons
# [24] = Cumulative Wt. of Diced Romaine added 896.2 lb, 600 gallons
# [25] = Cumulative Wt. of Diced Romaine added 949.9 lb, 600 gallons
smiles,measurement,setting,value
[O][Cl+][O-] [Chlorine Dioxide],Oxidation Capacity,[1],1.57 eV
"CC(O)C(=O)O (stereo not shown) [Lactic acid, lactic acid]","Log reduction, attached cells","E. coli K12 [2]; PAA 0 ppm, LA 1.2%",1.28
O=[O+][O-] [Ozone],Oxidation Capacity,[1],2.07 eV
"CC(=O)OO [Peroxyacetic acid, peroxyacetic acid]","Log reduction, attached cells",E. coli K12 [3]; PAA 70 ppm,1.33
same,"Log reduction, attached cells",E. coli K12 [3]; PAA 80 ppm,2.46
same,"Log reduction, attached cells","E. coli K12 [2]; PAA 80 ppm, LA 0.0%",1.18
same,log reduction of suspended cells,[4]; Peroxyacetic acid 70 ppm,4.52 log10
same,log reduction of suspended cells,[4]; Peroxyacetic acid 75 ppm,5.59 log10
same,log reduction of suspended cells,[4]; Peroxyacetic acid 80 ppm,5.59 log10
same,Pounds of Romaine treated,[5]; 600 gallons of sanitizer,949.90 lb
same,Depletion of PA,[5]; 600 gallons,0.000013 lb of PA per lb of Romaine
same,Amount of PA (PAA) consumed,[5]; [8],11.7 ppm
same,Pounds of PA (PAA) consumed,[5]; [8],0.01208 lb
same,PA (ppm) in wash water,[5]; [9],84.8 ppm
same,Peroxide (ppm) in wash water,[5]; [9],7.5 ppm
same,PA (ppm) in wash water,[5]; [10],83.3 ppm
same,Peroxide (ppm) in wash water,[5]; [10],7.4 ppm
same,PA (ppm) in wash water,[5]; [11],82.7 ppm
same,Peroxide (ppm) in wash water,[5]; [11],7.4 ppm
same,PA (ppm) in wash water,[5]; [12],82.4 ppm
same,Peroxide (ppm) in wash water,[5]; [12],7.4 ppm
same,PA (ppm) in wash water,[5]; [13],82.0 ppm
same,Peroxide (ppm) in wash water,[5]; [13],7.4 ppm
same,PA (ppm) in wash water,[5]; [14],81.4 ppm
same,Peroxide (ppm) in wash water,[5]; [14],7.3 ppm
same,PA (ppm) in wash water,[5]; [15],81.0 ppm
same,Peroxide (ppm) in wash water,[5]; [15],7.3 ppm
same,PA (ppm) in wash water,[5]; [16],80.5 ppm
same,Peroxide (ppm) in wash water,[5]; [16],7.1 ppm
same,PA (ppm) in wash water,[5]; [17],79.6 ppm
same,Peroxide (ppm) in wash water,[5]; [17],6.9 ppm
same,PA (ppm) in wash water,[5]; [18],78.7 ppm
same,Peroxide (ppm) in wash water,[5]; [18],6.9 ppm
same,PA (ppm) in wash water,[5]; [19],78.4 ppm
same,Peroxide (ppm) in wash water,[5]; [19],6.9 ppm
same,PA (ppm) in wash water,[5]; [20],77.7 ppm
same,Peroxide (ppm) in wash water,[5]; [20],6.4 ppm
same,PA (ppm) in wash water,[5]; [21],76.1 ppm
same,Peroxide (ppm) in wash water,[5]; [21],6.4 ppm
same,PA (ppm) in wash water,[5]; [22],75.4 ppm
same,Peroxide (ppm) in wash water,[5]; [22],6.1 ppm
same,PA (ppm) in wash water,[5]; [23],74.7 ppm
same,Peroxide (ppm) in wash water,[5]; [23],6.0 ppm
same,PA (ppm) in wash water,[5]; [24],73.7 ppm
same,Peroxide (ppm) in wash water,[5]; [24],6.0 ppm
same,PA (ppm) in wash water,[5]; [25],73.1 ppm
same,Peroxide (ppm) in wash water,[5]; [25],6.0 ppm
same,Aerobic Plate Counts after wash,[6],2.7 Log cfu/g
same,Log Reduction of indigenous microorganisms,[6],0.7 log10
same,Oxidation Capacity,[1],1.81 eV
same,apparent equilibrium constant Kap,[7],about 2.21
"OCl [Sodium hypochlorite (Chlorine bleach), Sodium hypochlorite]",Oxidation Capacity,[1],1.36 eV

# From US20130072563A1, “PERACID AND 2-HYDROXY ORGANIC ACID COMPOSITIONS AND METHODS FOR SANITATION AND DISEASE PREVENTION” (Fresh Express Incorporated, priority 2009, published 2013)
